Measurements from patent US10322132B2, “Prevention or treatment of uratic or gouty diseases” (SHANTON PHARMA CO., LTD., priority 2015, dated 2019).

Tests used:
[1] = system: MSU-induced air sacs; experiment: Air sacculitis (MSU-induced air sacs), leukocyte counts in lavage fluid; conditions: for Leukocyte count: Basophil / Leukocyte count: Eosinocyte / Leukocyte count: Lymphocyte / Leukocyte count: Monocyte / Leukocyte count: Neutrophil / Total cell count: 5 mg/kg (dexamethasone intraperitoneal, colchicine intragastric), lavage fluid 4 h after MSU, mean ± SEM, n = 8;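 as to all read-outs here: male Wistar rats with dorsal air sacs, dosed 1 h before injecting MSU crystal suspension, compared with saline-injected blank and vehicle-treated model groups, cytological analysis of lavage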
Description: (§2) The sterile MSU crystals were added to 5 mL of sterilized saline before injected into air sacs.
(§3) Male Wistar rats were raised for one week and then randomly divided into 6 groups. Animals were anesthetized and then injected with 24 mL of sterile air in their backs. The animals received the second injection of air 4 days later. On day 7, the rats in the blank group and model group were intragastrically administered with the solvent at a dose of 10 mL/kg; the rats in the dexamethasone group were administered by intraperitoneal injection with dexamethasone at a dose of 5 mg/kg; the rats in the colchicine group were intragastrically administered with colchicine at a dose of 5 mg/kg. […] One hour after administration, the rats in the blank group were injected with 5 mL of saline into the air sacs at the back, and the rats from other groups were injected with 5 mL of MSU crystal suspension (1 mg/mL) into the air sacs at the back. Four hours later, the lavage fluid in the air sacs was taken, and a portion of the lavage fluid was used for cytological analysis. The remaining was centrifuged at 8000 rpm for 15 min, and the supernatant was stored at −80° C. for the detection of cytokines IL-1β, IL-6, KC and TNFα. The test results were shown as mean±SEM and statistically analyzed by t-test.

[2] = system: IL-1β, IL-6, KC and TNFα; experiment: Air sacculitis (MSU-induced air sacs), cytokines in lavage fluid; conditions: 5 mg/kg (dexamethasone intraperitoneal, colchicine intragastric), lavage fluid supernatant, mean, n = 8
Description: as §2, §3

[3] = system: MSU-induced gouty arthritis; experiment: MSU-induced gouty arthritis, toe volume; assay type: in vivo, Male Wistar rats; conditions: for Inhibition of toe volume change (%): vs model group; for effect on increase of the toe volumes in the test rats (in words): compared with the model group
Description: The experiment was done by reference to Hsin-Pai Lee, Shi-Ying Huang, Yen-You Lin. Soft Coral-Derived Lemnalol Alleviates Monosodium Urate-Induced Gouty Arthritis in Rats by Inhibiting Leukocyte Infiltration and iNOS, COX-2 and c-Fos Protein Expression. […] 2013, 11, 99-113.
One gram of uric acid was weighed, introduced into 200 mL of boiling water and heated. Then, NaOH (2 mol/L) was added until pH reached 9. The solution became clear, and was cooled at room temperature and then left still overnight. MSU was obtained after filtration, which was dried at 60° C. for 24 h and then sterilized at a high temperature of 180° C.
(§1) The toe volumes of the rats were measured one day prior to the experiment. The rats were administered with the solvent by subcutaneous injection in the model group at a dose of 5 mL/kg, while the rats were administered with test samples by subcutaneous injection in administration groups at a dose of 5 mg/kg. Rats were anesthetized immediately after administration and were injected with 0.09 mL of MSU suspension into the joint cavity of the left ankle. The volume of the left toe was measured in rats 9 h after the injection of MSU into the ankle joint cavity.
as §1, with “dose of 15 mL/kg, while” for “dose of 5 mL/kg, while”, “dose of 15 mg/kg or 10 mg/kg. Rats” for “dose of 5 mg/kg. Rats”
The toe volumes of rats were measured one day prior to the experiment. The rats were administered with the solvent by subcutaneous injection in the model group at a dose of 15 mL/kg, while the rats were administered with the test sample by subcutaneous injection in administration group at a dose of 15 mg/kg. Rats were anesthetized immediately after administration and were injected with 0.09 mL of MSU suspension into the joint cavity of the left ankle. The volume of the left toe in each rat was measured 9 h after the injection of MSU into the ankle joint cavity.

[4] = system: serum uric acid; experiment: Uric acid-lowering experiment in cynomolgus monkeys; assay type: in vivo; set-up: Reduction rate of serum uric acid: concentration or dose not given beside the values; conditions: for Reduction rate of serum uric acid / Content of serum uric acid: intravenous; for Reduction rate of serum uric acid: 24 h after administration vs before administration; for Content of serum uric acid: 24 h after administration
Description: The experiment was done by reference to Komoriya K, Osada Y, Hasegawa M, Horiuchi H, Kondo S, Couch R C, Griffin T B. Hypouricemic effect of allopurinol and the novel xanthine oxidase inhibitor TEI-6720 in chimpanzees. Eur J Pharmacol. 1993 Dec. 21; 250(3): 455-60.
Each compound was tested in three non-naïve cynomolgus monkeys (1 #, 2 # and 3 #), wherein the monkeys were administered with test samples by intravenous injection. Blood was collected from the vein before administration and 1 h, 3 h, 6 h and 24 h after administration. The blood was left still at room temperature. The serum was collected by centrifugation. The content of uric acid in serum was measured. Reduction rate of serum uric acid=(average uric acid content before administration−average uric acid content after administration)/average uric acid content before administration*100%.

[5] = system: IFNγ; experiment: ConA-induced IFNγ release; assay type: in vivo, Male C57BL/6 mice
Description: The experiment was conducted by reference to Dalya R. Soondl, Elisa Bjørgo, etc. PI3K p110δ regulates T cell cytokine production during primary and secondary immune responses in mice and humans. Blood. Author manuscript; available in PMC 2013 Mar. 11; and Gabriele Sass, Sonja Heinlein, etc. CYTOKINE EXPRESSION IN THREE MOUSE MODELS OF EXPERIMENTAL HEPATITIS. CYTOKINE, Vol. 19, No. 3 (7 Aug.), 2002: pp 115-120.
The C57BL/6 mice were raised in the SPF-grade animal room for 1 week, and were then randomly divided into the corresponding model group and the administration groups according to the body weight. The […] were administered with ConA by the tail vein injection at a dose of 15 mg/kg 30 min after the administration of the solvent or the test samples by subcutaneous injection at a dose of 20 mg/kg. After the mice were anesthetized with sodium pentobarbital (45 mg/kg by intraperitoneal injection) 3 h after administration of ConA, the blood was collected by cardiac puncture. The blood was placed in the centrifuge tube without anticoagulant and left still at room temperature. One hour later, the blood was centrifuged. The serum was extracted and stored at −80° C. The content of IFNγ (γ-interferon) in the serum was detected by a Mouse IFNγ Elisa

[6] = Pharmacokinetics experiment in cynomolgus monkeys, intravenous; assay type: in vivo, cynomolgus monkeys (Macaca fascicularis); conditions: 3 mg/kg, Mean ± SD, n = 3
Description: Three non-naïve cynomolgus monkeys were administered with test compounds A, B and D at a dose of 5 mg/kg by intravenous injection and with test compound C at a dose of 3 mg/kg by intravenous injection, with one compound being tested at a time. Blood was collected from the vein before administration and 1 h, 3 h, 6 h and 24 h after administration, and plasma was isolated. The plasma was analyzed by a 4000 Q Trap LC-MS/MS instrument. The concentrations of the test samples were output by Analyst 1.6.1 from AB Company. The parameters ( ) such as the mean, standard deviation, and coefficient of variation were calculated using Microsoft Excel, wherein the values directly output by Analyst 1.6.1 requires no calculation. PK parameters were calculated using Pharsight Phoenix 6.2 software (NCA model).

[7] = system: MSU-induced gouty arthritis; experiment: Pain value in rats with gouty arthritis (electronic Von Frey pain threshold detector); assay type: in vivo, Male Wistar rats
Description: The rats with gouty arthritis were placed in a metabolic cage, and the palm center of the left foot of each rat was irritated with an electronic Von Frey pain threshold detector. The maximum stress value was recorded when each rat withdrew its foot, and the value was the pain value of that rat.

[8] = system: TNF-α; experiment: LPS-induced TNF-α release; assay type: in vivo, Male BALB/C mice
Description: The experiment was conducted by reference to Pascale Gaillard, Isabelle Jeanclaude-Etter, etc. Design and Synthesis of the First Generation of Novel Potent, Selective, and in Vivo Active (Benzothiazol-2-yl)acetonitrile
BALB/C mice were raised in the SPF-grade animal room for 1 week, and were then randomly divided into the corresponding model group and the administration groups according to the body weight. The […] were administered with the solvent or the test samples by subcutaneous injection at a dose of 10 mg/kg. The rats were administered with LPS by intraperitoneal injection at a dose of 15 mg/kg 30 min after the administration of the solvent or the test samples. The mice were anesthetized with sodium pentobarbital (45 mg/kg by intraperitoneal injection) 1 h after LPS administration. The blood was collected by cardiac puncture, and the content of TNF-α (tumor necrosis factor) in plasma was measured with a Mouse TNF-α Elisa Ready-set-go kit.

[9] = Example 5, 10 mg/kg subcutaneous, 9 h after MSU

In the case of `C[C@@H]1C[C@H]2[C@@H]3CCC4=CC(=O)C=C[C@]4(C)[C@@]3(F)[C@@H](O)C[C@]2(C)[C@@]1(O)C(=O)CO` [Dexamethasone, dexamethasone, reference compound], the “Leukocyte count: Basophil” value [1] is reported as 0 ± 0 *10^4/air sacs, the “Leukocyte count: Eosinocyte” value [1] is reported as 4.8 ± 1.6 *10^4/air sacs and the “Leukocyte count: Lymphocyte” value [1] is reported as 7.5 ± 1.1 *10^4/air sacs. The “Leukocyte count: Monocyte” value [1] was 171.0 ± 19.2 *10^4/air sacs, the “Leukocyte count: Neutrophil” value [1] was 13.8 ± 2.4^$ *10^4/air sacs and the Total cell count [1] was 197.2 ± 22.8^$$ *10^4/air sacs. The “IL-1β” value [2] was 27.8 pg/mL, the “KC” value [2] was 1653.5 pg/mL and the “TNF-α” value [2] was 6.6 pg/mL.

In the case of `COc1cc2c(c(OC)c1OC)-c1ccc(OC)c(=O)cc1[C@@H](NC(C)=O)CC2` [Colchicine, colchicine, reference compound], the “Leukocyte count: Basophil” value [1] is reported as 0 ± 0 *10^4/air sacs, the “Leukocyte count: Eosinocyte” value [1] is reported as 7.8 ± 2.0 *10^4/air sacs and the “Leukocyte count: Lymphocyte” value [1] is reported as 12.1 ± 2.5 *10^4/air sacs. For the same molecule, the “Leukocyte count: Monocyte” value [1] was 171.7 ± 20.1 *10^4/air sacs, the “Leukocyte count: Neutrophil” value [1] was 21.3 ± 6.6^$ *10^4/air sacs and the Total cell count [1] was 212.9 ± 28.8^$ *10^4/air sacs. For the same molecule, the “effect on increase of the total cell count and neutrophil count in the lavage fluid caused by MSU (in words)” value ([1]; compound A at the oral doses of 30 mg/kg and 100 mg/kg) was “significantly inhibit”, the “IL-1β” value [2] was 112.6 pg/mL and the “KC” value [2] was 9892.7 pg/mL. The “TNF-α” value [2] was 32.2 pg/mL.

For `CCCCn1c(=O)n(C)c(=O)c2[nH]c(Cl)nc21` [Compound C, 8-chloro-1-methyl-3-butyl-3,7-dihydro-1H-purine-2,6-dione], the “Change of toe volume” value ([3]; Example 4, 5 mg/kg subcutaneous, 9 h after MSU injection into left ankle joint cavity) was 0.451 mL, the “Inhibition of toe volume change (%)” value ([3]; Example 4, 5 mg/kg subcutaneous, 9 h after MSU) was 10.5% and the “effect on increase of the toe volumes in the test rats (in words)” value ([3]; Example 4, 5 mg/kg) was “significantly inhibit”. For the same molecule, the “Toe volume change” value [3, 9] was 0.261 mL, the “Inhibition of toe volume change (%)” value [3, 9] was 35.4% and the “effect on increase of the toe volumes in the test rats (in words)” value ([3]; Example 5, 15 mg/kg or 10 mg/kg) was “significantly inhibit”. The “effect on serum uric acid levels in the test monkeys (in words)” value ([4]; compared to the levels measured before administration) was “significantly reduce”, the “Reduction rate of serum uric acid” value ([4]; animal 1#) was 20.3% and the “Reduction rate of serum uric acid” value ([4]; animal 2#) was 41.0%. The “Reduction rate of serum uric acid” value ([4]; animal 3#) was 13.9%, the “Reduction rate of serum uric acid” value ([4]; mean) was 25.7% and the “Content of serum uric acid” value ([4]; animal 1#) was 45.8 µmol/L. The “Content of serum uric acid” value ([4]; animal 2#) was 38.3 µmol/L, the “Content of serum uric acid” value ([4]; animal 3#) was 50.7 µmol/L and the “Content of serum uric acid” value ([4]; mean) was 44.9 µmol/L. For the same molecule, the “inhibition (%)” value ([5]; IFN-γ in serum vs model group, 20 mg/kg subcutaneous) was 19.4%, the “effect on content of IFNγ in the serum of the test mice (in words)” value ([5]; compared with the model group) was “significantly reduce” and the “Content of IFN-γ” value ([5]; serum, 20 mg/kg subcutaneous 30 min before ConA 15 mg/kg tail vein, 3 h after ConA) was 2644 pg/mL. For the same molecule, the “t1/2z” value [6] was 41.49 ± 12.31 h, the “Pain value” ([7]; Example 5, 10 mg/kg subcutaneous, left foot, Von Frey) was 43.46 g and the “effect on pain values in the test rats (in words)” value ([7]; Example 5, compared with the model group) was “significantly increase”. The “inhibition (%)” value ([8]; TNF-α in plasma vs model group, 10 mg/kg subcutaneous) was 24.4%, the “effect on content of TNF-α in the plasma of the test mice (in words)” value ([8]; compared with the model group) was “significantly reduce” and the “Content of TNF-α” value ([8]; plasma, 10 mg/kg subcutaneous 30 min before LPS 15 mg/kg i.p., 1 h after LPS) was 1208 pg/mL.
